# US11034839B2, “Compounds, linked with haptens, for the detection of senescent cells” (THE UNIVERSITY OF MANCHESTER, priority 2016, dated 2021)
# Legend:
# [1] = test system: senescent cells in biological systems with established senescence; assay: Quantitative analysis and concordance of SA-b-gal, SBB and GL13 staining; conditions: FIG. 15
# [2] = test system: HeLa cancer cells and near normal Li-Fraumeni fibroblasts; assay: False-positive studies (cell confluency, serum starvation); assay type: cell-based, human
# Excerpt: The in vitro models comprised seven cellular systems. […] The same cellular system was used at early passages that underwent SIPS upon y-irradiation and was compared in relation to non-irradiated counterparts. Another set of models comprised two inducible Saos2 Tet-ON osteosarcoma cell lines carrying p53 and p21^WAF1/Cip1, respectively, two well established effectors of senescence (Georgakopoulou et al., 2013; Galanos et al., 2016). Finally, the U2OS-E2F1 ER, U205-Cdt1 Tet-ON and HBECs-Cdc6 Tet-ON inducible systems that undergo SIPS due to oncogenic stress signals were also utilized (Petrakis et al., 2016; Liontos et al., 2007; Liontos et al., 2009). Parental cell lines were obtained either directly from ATCC or from collaborating laboratories that generated them. In addition, the human cancer cell line HeLa and near normal Li-Fraumeni fibroblasts (Galanos et al., 2016) were also employed as control cell lines for the specificity of staining of the SBB compounds.
# [3] = test system: human diploid lung fibroblasts (DLFs) and human bronchial epithelial cells (HBEC-Cdc6 Tet-ON); assay: IHC staining versus proliferation markers (Ki67 and BrdU incorporation); assay type: cell-based; conditions: FIG. 16
# [4] = test system: senescent cells in irradiated human laryngeal tumors, palbociclib treated human melanoma cell xenografts, mouse bleomycin-injected lung, mouse lung adenomas; assay: Streptavidin-HRP/DAB labeling of tissue sections; conditions: FIG. 5ai-di in comparison to FIGS. 2,3,4
# Excerpt: In the inventive example 2, the derivative LG13 was used to detect senescent cells in tissue sections using streptavidin-horse radish peroxidase (HRP)/DAB labeling.
# Tissue sections were obtained from paraffin embedded, formalin fixed: (a) irradiated human laryngeal tumors, (b) palbociclib treated human melanoma cell xenografts, (c) mouse bleomycin-injected lung and (d) mouse lung adenomas. Subsequently, they were immobilized on glass microscopy slides by standard procedures and processed as follows: • a. Deparaffinization for 5 min at room temperature in xylene • b. Gradual rehydration in solutions of descending concentration of ethanol (100%, 80%, 70%, 50% v/v) and finally in TBS (Tris-buffered saline) or PBS (Phosphate-buffered saline) solution. • c. Blocking of endogenous peroxidase activity with 3% H2O2 for 10 min. • d. Gradual dehydration of biopsy material in 50% (v/v) ethanol followed by 70% (v/v) ethanol for 5 min each step. • e. Application of the new compound LG13, linked with biotin, diluted in ethanol and filtered, on biopsy material for 10 min. • f. Quick wash in 50% (v/v) ethanol. • g. Transfer and wash in TBS or PBS solution. • h. Incubation in streptavidin-HRP (horse radish peroxidase) conjugated (dilution 1/200), for ½ hr at room temperature. • i. Quick wash in TBS or PBS solution. • j. […]
structure (smiles),measurement,setting,value
"CC1(COC(=O)CCCC[C@H]2SC[C@H]3NC(=O)N[C@H]32)Nc2cccc3c(/N=N/c4ccc(/N=N/c5ccccc5)c5ccccc45)ccc(c23)N1 (stereo partly drawn) [LG13, (2-methyl-6-((E)-(4-((E)-phenyldiazenyl)naphthalen-1-yl)diazenyl)-2,3-dihydro-1H-perimidin-2-yl)methyl 5-((3aR,4R,6aS)-2-oxohexahydro-1H-thieno[3,4-d]imidazol-4-yl)pentanoate]","specificity compared among SA-b-gal, SBB and GL13 staining",[1],concordance of specificity
same,staining under cell confluency,"[2]; HeLa and Li-Fraumeni fibroblasts, FIG. 17",Negative
same,staining of serum starved HeLa cells after formalin fixing and paraffin embedding,"[2]; cell block, FIG. 18",negative
same,false-positive staining due to serum starvation and cell confluency,"[2]; compared with SA-b-gal, FIGS. 17 and 18",deprived of the false-positive staining disadvantages
same,staining after serum starvation,"[2]; in comparison to SA-β-gal that gave positive signal, FIG. 18",Negative
same,relationship between IHC staining and proliferation markers (Ki67 and BrdU incorporation),[3],Inverse relationship
same,recognition of senescent cells compared to histochemical staining,[4],makes easier the recognition of senescent cells
